# Results from patent US6943278B2, “Transgenic Drosophila having a disrupted Parkin gene and exhibits reduced climbing ability” (GenExel, Inc., priority 2002, dated 2005).
# Columns and labels:
# Format in all cases: in vivo, Drosophila
# wild type flies = assay: climbing ability of wild type flies fed D- or L-dopa; conditions: for effect on climbing response (in words): wild type flies fed 1 mM compound for 10 days; for % climbing abilities, WT: wild type flies fed 1 mM compound on dry yeast for 10 days
# Procedure: (§1) parkin mutant flies older than 3-4 days after eclosion moved extremely slowly or not at all, remaining on the bottom of the culture vials. To quantify the locomotor behavioral defects of parkin mutant flies, the climbing ability of the mutants was examined. To do so, fifteen flies were placed in a plastic vial, and gently tapped to the bottom of the vial. The number of flies at the top of the vial was counted after 18 seconds of climbing. Ten trials were performed for each time point. The trial numbers were then averaged, and the resulting mean was normalized by the mean value of 1-day-old wild type. These used as the climbing scores for each single group of flies on a particular day. The experiment was repeated five times, with independently derived transgenic lines. The climbing score for five repeated experiments was then averaged, and a group mean and standard error were obtained. As previously reported (Ganetzky and Flanagan, Exp. Gerontol., 13:189 (1978); Le Bourg and Lints, Gerontology 8:59 (1992); Feany and Bender, 2000; Pendleton et al., J. Pharmacol. Exp. Ther. 300:91 (2002)), wild type flies rapidly climb to the top of a vial when tapped to the bottom, and have a strong tendency to remain at the top. However, as the flies get older, they no longer climb to the top of the vial, in other words they lose climbing ability (Ganetzky and Flanagan, 1978; Le Bourg and Lints, 1992; Feany and Bender, 2000; Pendleton et al., 2002).
# (§2) A compound was screened for its ability to rescue the defective climbing response of Dpark^1 and Dpark^2 mutants. Flies were reared and crossed on Caltech medium (Ashbumer, Drosophila, Cold Spring Harbor, N.Y.: Cold Spring Harbor Laboratory Press (1989)) at 25° C. Wild type or parkin mutant flies were fed either L-DOPA or D-DOPA for 10 days by placing dry yeast that was soaked with 0.3 mL of either 1 mM L-DOPA or 1 mM D-DOPA on the bottom of the vial.
# [1] = tested on: Dpark^1 parkin mutant flies; assay: rescue of defective climbing response of Dpark^1 mutant flies; conditions: for % climbing abilities, Dpark1/Dpark1: Dpark1/Dpark1 flies fed 1 mM compound on dry yeast for 10 days, relative to unfed wild type control; for effect on climbing response (in words): Dpark^1 flies fed 1 mM compound for 10 days
# Procedure: as §1, §2
# [2] = tested on: Dpark^2 parkin mutant flies; assay: rescue of defective climbing response of Dpark^2 mutant flies; conditions: for % climbing abilities, Dpark2/Dpark2: Dpark2/Dpark2 flies fed 1 mM compound on dry yeast for 10 days, relative to unfed wild type control; for effect on climbing response (in words): Dpark^2 flies fed 1 mM compound for 10 days
# Procedure: as §1, §2
Compound,effect on climbing response (in words) (wild type flies),"% climbing abilities, WT (wild type flies) [%]","% climbing abilities, Dpark1/Dpark1 [1] [%]",effect on climbing response (in words) [1],"% climbing abilities, Dpark2/Dpark2 [2] [%]",effect on climbing response (in words) [2],"% climbing abilities, Dpark1/Dpark1 ([1]; listed as L-DOPA) [%]","% climbing abilities, Dpark2/Dpark2 ([2]; listed as L-DOPA) [%]"
"N[C@H](Cc1ccc(O)c(O)c1)C(=O)O [D-dopa, D-DOPA]",Neither L-DOPA nor D-DOPA was effective,101.90 ± 2.72,33.221 ± 1.87,not effective,37.75 ± 2.44,not effective,–,–
"N[C@@H](Cc1ccc(O)c(O)c1)C(=O)O [L-dopa, L-DOPA]",Neither L-DOPA nor D-DOPA was effective,100.59 ± 2.73,68.20 ± 6.06,significantly restored the climbing response,68.51 ± 10.09,significantly restored the climbing response,~70,~70
